{
  "source": "patent US20050014731A1",
  "about": "“Treatment of Th1 dominated immunological disease states with non-endogenous gestagen compounds” (Solvay Pharmaceuticals GmbH, priority 2002, published 2005)",
  "key": {"pregnant mice": {"test_system": "pregnant mice", "test": "murine stress-induced abortion model", "format": "in vivo", "description": "The results of the pharmacological test method given above can also be confirmed in an in vivo test model involving pregnant mice. […] Pregnant mice were exposed to ultrasound on day 5 of gestation. This stress increased the abortion rate of these mice from around 12% to 44%. Treatment with dydrogesterone reduced the abortion in a dose-related manner to as low as 5%."}, "[1]": {"test_system": "peripheral blood mononuclear cells (=PBMC)", "test": "Th1 and Th2 cytokine profiles produced by mitogen-stimulated PBMC (ELISA), ex vivo", "format": "cell-based, human", "description": "The effects of dydrogesterone on Th1 and Th2 cytokine profiles produced by mitogen-stimulated peripheral blood mononuclear cells (=PBMC) were determined. Several studies have pointed to a deviation of cytokine profiles in women when during pregnancy. Pregnancy is associated with a shift towards Th2 bias, evinced by changes in peripheral T cells, by cytokine production by peripheral lymphocytes and by cytokine changes at the maternal-fetal interface. Unexplained recurrent spontaneous abortion (URSA) seems to be associated with a stronger bias towards Th1 cytokines. Women who have earlier been gone through URSA may therefore be regarded as a pre-selected group of patients that will typically respond to an immunological stimulation by showing a Th1 dominated pattern of immune response. The pharmacological test was therefore performed with a suitable URSA group which comprised of women admitted with spontaneous abortion for evacuation, (i) who have had at least two previous unexplained miscarriages, (ii) who were currently undergoing at least a 3rd abortion and (iii) who had been fully investigated. The relationship between habitual abortion and cytokine production response in 54 women with normal pregnancy (and at least 3 previous normal pregnancies) and 23 women with a history of habitual abortion of unexplained aetiology (URSA group) has been investigated. Mitogen-induced stimulation of Peripheral Blood Mononuclear Cells (PBMC): Peripheral blood was obtained by venipuncture from the abortion group on the day of abortion. PBMC is separated by Ficoll-paque (Pharmacia Biotech, Sweden) density gradient centrifugation, suspended in RPMI medium (=“Roswell Park Memorial Institute”-medium; obtained from GIBCO/BRL, USA) containing 10% fetal calf serum, aliquoted into 96 well tissue culture plates at a density of 100.000 cells per well and then stimulated with the mitogen phytohemagglutinin (=PHA, Sigma Chemicals, USA) at a concentration of […] for a period of 96 hours, with autologous placental antigens or with trophoblast antigens. Progesterone, dydrogesterone (Duphaston®) and RU486 (=mifepristone) was added in different combinations as described below. Progesterone was tested at concentrations of […]. RU486 was tested at equivalent concentrations. Culture supernatants were harvested at 96 hours for determination of the levels of cytokines secreted by the PBMC into the supernatants. Cytokine levels were determined in the supernatants by enzyme-linked immunosorbent assay (=ELISA). Protocol of Experimental Samples: Each sample was tested in the following manner: • PBMC+mitogen • PBMC+mitogen+progesterone • PBMC+mitogen+progesterone+RU486 • PBMC+mitogen+dydrogesterone • PBMC+mitogen+dydrogesterone+RU486 • PBMC+mitogen+Carrier • PBMC+mitogen+Carrier+RU486 Determination of cytokine levels by ELISA: Th1 cytokines TNF-α and IFN-γ, and Th2 cytokines IL-4, IL-6 and IL-10 were evaluated in these samples by ELISA using kits that were obtained from Immunotech SA, France. These consisted of “sandwich ELISA”; briefly the first step leads to the capture of the relevant cytokine by monoclonal anti-cytokine antibodies bound to the wells of microtiter plates. In the second step, a second biotinylated monoclonal is added together with streptavidin-enzyme (peroxidase or alkaline phosphatase) conjugate. The biotinylated antibody binds to the solid phase antibody-antigen complex, and in turn, binds the conjugate. After incubation the wells are washed and the binding of the streptavidin-enzyme via biotin is followed by the addition of a chromogenic substrate. The intensity of the coloration produced is proportional to the concentration of the cytokine in the sample. Standard curves are plotted for each of the cytokines using reference recombinant cytokines and the results are read from these curves. The sensitivity of each of the assays is as follows: 5 pg/ml of TNF-α, 0.08 IU/ml of IFN-γ, 5 pg/ml of IL-4 and 5 pg/ml of IL-10. […]"}, "[2]": {"test_system": "Th1 cytokine production to trophoblast", "conditions": "in vitro, women with recurrent pregnancy loss; Choi et al., Human Reproduction 15/1 (2000) 46-59; cited from earlier work"}, "[3]": {"conditions": "PHA-stimulated PBMC supernatant, ELISA, 96 hours"}, "[4]": {"conditions": "women with spontaneous abortion and habitual abortion"}},
  "data": [
    {"smiles": "CC(=O)[C@H]1CC[C@H]2[C@@H]3C=CC4=CC(=O)CC[C@@]4(C)[C@@H]3CC[C@]12C", "note": "[dydrogesterone]", "values": [
      {"measurement": "Th1/Th2-cytokine production", "setting": "pregnant mice; murine stress-induced abortion model", "value": "shift from Th1 to Th2-cytokine production"},
      {"measurement": "abortion rate", "setting": "pregnant mice; pregnant mice exposed to ultrasound on day 5 of gestation, dose-related, stress raised rate from around 12% to 44%", "value": "≥ 5", "unit": "%"},
      {"measurement": "level of IL-4", "setting": "pregnant mice; pregnant mice exposed to ultrasound stress on day 5 of gestation", "value": "increased level"},
      {"measurement": "IFN-γ", "setting": "[1]; [3]", "value": "reduction of IFN-γ"},
      {"measurement": "Interleukin 4", "setting": "[1]; [3]", "value": "marked increase"},
      {"measurement": "Interleukin 6", "setting": "[1]; [3]", "value": "marked increase"},
      {"measurement": "Th1/Th2 bias", "setting": "[1]; PHA-stimulated PBMC, 96 hours, women with spontaneous and habitual abortion", "value": "shift from a Th1 towards a Th2 bias"},
      {"measurement": "activity of lymphocytes", "setting": "[1]; [4]", "value": "reduced the activity of lymphocytes"},
      {"measurement": "release of progesterone induced blocking factor (PIBF)", "setting": "[1]; [4]", "value": "increased release"}
    ]},
    {"smiles": "CC(=O)[C@H]1CC[C@H]2[C@@H]3CCC4=CC(=O)CC[C@]4(C)[C@H]3CC[C@]12C", "note": "[progesterone]", "values": [
      {"measurement": "embryotoxic Th1 cytokine production to trophoblast", "setting": "[2]", "value": "inhibits"}
    ]}
  ]
}
